Experimental data from ChEMBL document CHEMBL5346896, “Development of indolealkylamine derivatives as potential multi-target agents for COVID-19 treatment” (Eur J Med Chem, 2023).

Test system: SARS-CoV-2
Test: Antiviral activity against SARS-CoV-2 spike pseudotyped lentivirus infected in HEK293 cells expressing human ACE2 assessed as inhibition of viral entry into cells at highest concentration preincubated with cell for 1 hrs followed by viral infection for 1 hrs and further replaced with fresh medium and measured 48 hrs post transduction by luminescence based luciferase reporter assay relative to …
Type: functional, Severe acute respiratory syndrome coronavirus 2, HEK293T
Settings: time 2 hrs

COc1ccc2[nH]c(C(O)c3ccc(Cl)cc3)c(CCNC(C)=O)c2c1 (configuration not stated)
inhibition (INH): 70%

COC(=O)NCCc1c(C(O)c2ccccc2)[nH]c2ccc(OC)cc12 (configuration not stated)
inhibition (INH): 70%
